Here are results for four compounds from patent US10744092B2, “Temperature-sensitive composite and method for preparing same” (KOREA UNIVERSITY RESEARCH AND BUSINESS FOUNDATION, SEJONG …, priority 2016, dated 2020).

The structures appear in SMILES notation.

A short description of data set [1]: Release pattern of drug from composite (dialysis bag in PBS pH 7.4, HPLC). The data set is classed as physicochemical. Conditions: at body temperature (37° C.) versus room temperature; PBS pH 7.4, dialysis bag. The procedure: To confirm the release pattern of a drug from the temperature-sensitive composite in the present invention, an experiment was carried out as follows. 20 mg of each of the temperature-sensitive composites from Examples 1, 2 and 3, and the temperature-sensitive polymer composites from Comparative Examples 1, 2 and 3 was put into a dialysis bag (filtration molecular weight cut-off—100,000), and then immersed in 20 ml of a phosphate buffer solution (PBS, pH 7.4). The temperature was maintained at 25° C. and 37.5° C. with stirring at 600 rpm. At predetermined time, 5 ml of the phosphate buffer solution was withdrawn to measure an amount of the released drug through HPLC. After sampling, the remaining phosphate buffer solution was completely removed, and a fresh phosphate buffer solution was added.

Data set [2] is described as follows: Precipitation / stability and solubility of drug in composite aqueous solution. The data set is classed as physicochemical. Conditions: drug not loaded in nanoparticles. The procedure: An aqueous solution was prepared by mixing 2 g of Pluronic F-127, 0.1 g of naproxen and 50 mg of sodium hyaluronate with 10 ml of distilled water, thereby preparing a polymer composite aqueous solution in which naproxen was dispersed.
An aqueous solution was prepared by mixing 1.6 g of Pluronic F-127, 0.4 g of Pluronic F-68, 50 mg of doxorubicin and 75 mg of docetaxel with 10 ml of distilled water, thereby preparing a polymer composite aqueous solution in which doxorubicin and docetaxel were dispersed.

As to `COc1cccc2c1C(=O)c1c(O)c3c(c(O)c1C2=O)C[C@@](O)(C(=O)CO)C[C@@H]3O[C@H]1C[C@H](N)[C@H](O)[C@H](C)O1` [doxorubicin], the “release of the drug” value in data set [1] is “decreased”.

Regarding `CCCCN1CCCCC1C(=O)Nc1c(C)cccc1C` (stereo not shown) [bupivacaine], the “release of the drug” value in data set [1] is “decreased”.

For `CC(=O)O[C@@]12CO[C@@H]1C[C@H](O)[C@@]1(C)C(=O)[C@H](O)C3=C(C)[C@@H](OC(=O)[C@H](O)[C@@H](NC(=O)OC(C)(C)C)c4ccccc4)C[C@@](O)([C@@H](OC(=O)c4ccccc4)[C@H]21)C3(C)C` [docetaxel], the “precipitation in the polymer composite” value in data set [2] is recorded as “precipitated”.

Turning to `COc1ccc2cc([C@H](C)C(=O)O)ccc2c1` [naproxen], the “precipitation in the polymer composite” value in data set [2] is “precipitated”.
